{"source": "the supplement of paper PMC10307832", "data": [{"compound": "O=C(/C=C/c1ccccc1)NC(NC(=S)Nc1cccc2cccnc12)C(Cl)(Cl)Cl [Salubrinal] + COc1cc2c(Oc3ccc(NC(=O)C4(C(=O)Nc5ccc(F)cc5)CC4)cc3F)ccnc2cc1OCCCN1CCOCC1 [Foretinib] (partner 0.25 µM)", "test": "relative viability (nuclei count vs DMSO), 5 days (fraction); higher = more cells survive", "details": "first compound 8 µM", "how_it_was_run": "(§1)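 Relative viability equals treated-well nuclei counts divided by vehicle-well nuclei counts. Counts came from 4× images of lung cancer cell lines grown in 1536-well plates for 5 days after pin-tool dosing on the day after seeding. Dosing used one drug alone or a fixed anchor-drug dose plus five library-drug doses (not always all listed) in √10 steps, and values are medians of duplicate plates.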", "values": [{"cell line": "NCI-H1755", "relative viability": 0.937}, {"cell line": "NCI-H2023", "relative viability": 0.818}]}, {"compound": "O=C(/C=C/c1ccccc1)NC(NC(=S)Nc1cccc2cccnc12)C(Cl)(Cl)Cl [Salubrinal] + Nc1nc2[nH]cc(CCc3ccc(C(=O)N[C@@H](CCC(=O)O)C(=O)O)cc3)c2c(=O)[nH]1 [Pemetrexed] (partner 0.2 µM)", "test": "relative viability (nuclei count vs DMSO), 5 days (fraction); higher = more cells survive", "details": "first compound 0.08 µM", "how_it_was_run": "as §1", "values": [{"cell line": "NCI-H2405", "relative viability": 1.01}, {"cell line": "HOP-62", "relative viability": 0.244}, {"cell line": "SK-MES-1", "relative viability": 0.993}, {"cell line": "LU99A", "relative viability": 0.176}, {"cell line": "BEN", "relative viability": 0.744}, {"cell line": "HARA", "relative viability": 0.254}, {"cell line": "HCC-78", "relative viability": 0.928}, {"cell line": "NCI-H322M", "relative viability": 0.699}, {"cell line": "LCLC-97TM1", "relative viability": 0.169}, {"cell line": "NCI-H2009", "relative viability": 1.08}, {"cell line": "A-427", "relative viability": 0.957}, {"cell line": "NCI-H441", "relative viability": 0.271}, {"cell line": "NCI-H1734", "relative viability": 0.423}, {"cell line": "NCI-H460", "relative viability": 0.0573}, {"cell line": "NCI-H2347", "relative viability": 0.43}, {"cell line": "SK-LU-1", "relative viability": 0.994}, {"cell line": "NCI-H1395", "relative viability": 0.96}, {"cell line": "201T", "relative viability": 0.356}, {"cell line": "NCI-H1915", "relative viability": 0.477}, {"cell line": "HCC-827", "relative viability": 0.503}, {"cell line": "LXF-289", "relative viability": 1.06}, {"cell line": "NCI-H23", "relative viability": 0.674}, {"cell line": "NCI-H647", "relative viability": 0.199}, {"cell line": "CAL-12T", "relative viability": 1.4}, {"cell line": "NCI-H1651", "relative viability": 0.655}, {"cell line": "EPLC-272H", "relative viability": 0.255}, {"cell line": "NCI-H2228", "relative viability": 0.334}, {"cell line": "NCI-H1355", "relative viability": 1.11}, {"cell line": "NCI-H3122", "relative viability": 0.198}, {"cell line": "NCI-H1437", "relative viability": 0.413}, {"cell line": "NCI-H1755", "relative viability": 0.379}, {"cell line": "NCI-H2023", "relative viability": 0.265}]}, {"compound": "O=C(/C=C/c1ccccc1)NC(NC(=S)Nc1cccc2cccnc12)C(Cl)(Cl)Cl [Salubrinal] + Nc1nc2[nH]cc(CCc3ccc(C(=O)N[C@@H](CCC(=O)O)C(=O)O)cc3)c2c(=O)[nH]1 [Pemetrexed] (partner 0.2 µM)", "test": "relative viability (nuclei count vs DMSO), 5 days (fraction); higher = more cells survive", "details": "first compound 0.253 µM", "how_it_was_run": "as §1", "values": [{"cell line": "NCI-H2405", "relative viability": 1.16}, {"cell line": "HOP-62", "relative viability": 0.267}, {"cell line": "SK-MES-1", "relative viability": 0.784}, {"cell line": "LU99A", "relative viability": 0.205}, {"cell line": "BEN", "relative viability": 0.753}, {"cell line": "HARA", "relative viability": 0.285}, {"cell line": "HCC-78", "relative viability": 0.837}, {"cell line": "NCI-H322M", "relative viability": 0.578}, {"cell line": "LCLC-97TM1", "relative viability": 0.218}, {"cell line": "NCI-H2009", "relative viability": 0.928}, {"cell line": "A-427", "relative viability": 0.964}, {"cell line": "NCI-H441", "relative viability": 0.274}, {"cell line": "NCI-H1734", "relative viability": 0.454}, {"cell line": "NCI-H460", "relative viability": 0.0837}, {"cell line": "NCI-H2347", "relative viability": 0.43}, {"cell line": "SK-LU-1", "relative viability": 0.721}, {"cell line": "NCI-H1395", "relative viability": 1.09}, {"cell line": "201T", "relative viability": 0.321}, {"cell line": "HCC-827", "relative viability": 0.276}, {"cell line": "LXF-289", "relative viability": 0.891}, {"cell line": "NCI-H23", "relative viability": 0.633}, {"cell line": "NCI-H647", "relative viability": 0.174}, {"cell line": "CAL-12T", "relative viability": 0.754}, {"cell line": "NCI-H1651", "relative viability": 0.393}, {"cell line": "NCI-H1355", "relative viability": 1.02}, {"cell line": "NCI-H3122", "relative viability": 0.181}, {"cell line": "NCI-H1437", "relative viability": 0.273}, {"cell line": "NCI-H1755", "relative viability": 0.513}, {"cell line": "NCI-H2023", "relative viability": 0.198}]}, {"compound": "O=C(/C=C/c1ccccc1)NC(NC(=S)Nc1cccc2cccnc12)C(Cl)(Cl)Cl [Salubrinal] + Nc1nc2[nH]cc(CCc3ccc(C(=O)N[C@@H](CCC(=O)O)C(=O)O)cc3)c2c(=O)[nH]1 [Pemetrexed] (partner 0.2 µM)", "test": "relative viability (nuclei count vs DMSO), 5 days (fraction); higher = more cells survive", "details": "first compound 0.8 µM", "how_it_was_run": "as §1", "values": [{"cell line": "NCI-H2405", "relative viability": 1.17}, {"cell line": "HOP-62", "relative viability": 0.317}, {"cell line": "SK-MES-1", "relative viability": 1.11}, {"cell line": "LU99A", "relative viability": 0.265}, {"cell line": "BEN", "relative viability": 0.971}, {"cell line": "HARA", "relative viability": 0.327}, {"cell line": "HCC-78", "relative viability": 0.971}, {"cell line": "NCI-H322M", "relative viability": 0.684}, {"cell line": "LCLC-97TM1", "relative viability": 0.19}, {"cell line": "NCI-H2009", "relative viability": 1.08}, {"cell line": "A-427", "relative viability": 1.17}, {"cell line": "NCI-H441", "relative viability": 0.274}, {"cell line": "NCI-H1734", "relative viability": 0.41}, {"cell line": "NCI-H460", "relative viability": 0.0626}, {"cell line": "NCI-H2347", "relative viability": 0.423}, {"cell line": "SK-LU-1", "relative viability": 1.02}, {"cell line": "NCI-H1395", "relative viability": 1.03}, {"cell line": "201T", "relative viability": 0.403}, {"cell line": "NCI-H1915", "relative viability": 0.562}, {"cell line": "HCC-827", "relative viability": 0.278}, {"cell line": "LXF-289", "relative viability": 0.988}, {"cell line": "NCI-H23", "relative viability": 0.919}, {"cell line": "NCI-H647", "relative viability": 0.184}, {"cell line": "CAL-12T", "relative viability": 1.46}, {"cell line": "NCI-H1651", "relative viability": 0.781}, {"cell line": "EPLC-272H", "relative viability": 0.363}, {"cell line": "NCI-H2228", "relative viability": 0.404}, {"cell line": "NCI-H1355", "relative viability": 1.1}, {"cell line": "NCI-H3122", "relative viability": 0.204}, {"cell line": "NCI-H1437", "relative viability": 0.292}, {"cell line": "NCI-H1755", "relative viability": 0.401}, {"cell line": "NCI-H2023", "relative viability": 0.292}]}, {"compound": "O=C(/C=C/c1ccccc1)NC(NC(=S)Nc1cccc2cccnc12)C(Cl)(Cl)Cl [Salubrinal] + Nc1nc2[nH]cc(CCc3ccc(C(=O)N[C@@H](CCC(=O)O)C(=O)O)cc3)c2c(=O)[nH]1 [Pemetrexed] (partner 0.2 µM)", "test": "relative viability (nuclei count vs DMSO), 5 days (fraction); higher = more cells survive", "details": "first compound 2.53 µM", "how_it_was_run": "as §1", "values": [{"cell line": "NCI-H2405", "relative viability": 1.05}, {"cell line": "HOP-62", "relative viability": 0.315}, {"cell line": "SK-MES-1", "relative viability": 0.896}, {"cell line": "LU99A", "relative viability": 0.265}, {"cell line": "BEN", "relative viability": 0.846}, {"cell line": "HARA", "relative viability": 0.273}, {"cell line": "HCC-78", "relative viability": 0.918}, {"cell line": "NCI-H322M", "relative viability": 0.574}, {"cell line": "LCLC-97TM1", "relative viability": 0.158}, {"cell line": "NCI-H2009", "relative viability": 1.02}, {"cell line": "A-427", "relative viability": 1.03}, {"cell line": "NCI-H441", "relative viability": 0.275}, {"cell line": "NCI-H1734", "relative viability": 0.427}, {"cell line": "NCI-H460", "relative viability": 0.0636}, {"cell line": "NCI-H2347", "relative viability": 0.452}, {"cell line": "SK-LU-1", "relative viability": 0.886}, {"cell line": "NCI-H1395", "relative viability": 0.984}, {"cell line": "201T", "relative viability": 0.318}, {"cell line": "NCI-H1915", "relative viability": 0.495}, {"cell line": "HCC-827", "relative viability": 0.227}, {"cell line": "LXF-289", "relative viability": 0.851}, {"cell line": "NCI-H23", "relative viability": 0.653}, {"cell line": "NCI-H647", "relative viability": 0.196}, {"cell line": "CAL-12T", "relative viability": 1.07}, {"cell line": "NCI-H1651", "relative viability": 0.604}, {"cell line": "EPLC-272H", "relative viability": 0.342}, {"cell line": "NCI-H2228", "relative viability": 0.326}, {"cell line": "NCI-H1355", "relative viability": 1.03}, {"cell line": "NCI-H3122", "relative viability": 0.198}, {"cell line": "NCI-H1437", "relative viability": 0.322}, {"cell line": "NCI-H1755", "relative viability": 0.638}, {"cell line": "NCI-H2023", "relative viability": 0.225}]}, {"compound": "O=C(/C=C/c1ccccc1)NC(NC(=S)Nc1cccc2cccnc12)C(Cl)(Cl)Cl [Salubrinal] + Nc1nc2[nH]cc(CCc3ccc(C(=O)N[C@@H](CCC(=O)O)C(=O)O)cc3)c2c(=O)[nH]1 [Pemetrexed] (partner 0.2 µM)", "test": "relative viability (nuclei count vs DMSO), 5 days (fraction); higher = more cells survive", "details": "first compound 8 µM", "how_it_was_run": "as §1", "values": [{"cell line": "NCI-H2405", "relative viability": 1.07}, {"cell line": "HOP-62", "relative viability": 0.331}, {"cell line": "SK-MES-1", "relative viability": 0.914}, {"cell line": "LU99A", "relative viability": 0.185}, {"cell line": "BEN", "relative viability": 0.791}, {"cell line": "HARA", "relative viability": 0.254}, {"cell line": "HCC-78", "relative viability": 0.899}, {"cell line": "NCI-H322M", "relative viability": 0.544}, {"cell line": "LCLC-97TM1", "relative viability": 0.158}, {"cell line": "NCI-H2009", "relative viability": 0.965}, {"cell line": "A-427", "relative viability": 1.1}, {"cell line": "NCI-H441", "relative viability": 0.255}, {"cell line": "NCI-H1734", "relative viability": 0.409}, {"cell line": "NCI-H460", "relative viability": 0.0643}, {"cell line": "NCI-H2347", "relative viability": 0.529}, {"cell line": "SK-LU-1", "relative viability": 0.94}, {"cell line": "NCI-H1395", "relative viability": 0.718}, {"cell line": "201T", "relative viability": 0.364}, {"cell line": "NCI-H1915", "relative viability": 0.466}, {"cell line": "HCC-827", "relative viability": 0.245}, {"cell line": "LXF-289", "relative viability": 0.851}, {"cell line": "NCI-H23", "relative viability": 0.421}, {"cell line": "NCI-H647", "relative viability": 0.147}, {"cell line": "CAL-12T", "relative viability": 1.21}, {"cell line": "NCI-H1651", "relative viability": 0.6}, {"cell line": "EPLC-272H", "relative viability": 0.294}, {"cell line": "NCI-H2228", "relative viability": 0.277}, {"cell line": "NCI-H1355", "relative viability": 1.09}, {"cell line": "NCI-H3122", "relative viability": 0.195}, {"cell line": "NCI-H1437", "relative viability": 0.297}, {"cell line": "NCI-H1755", "relative viability": 0.395}, {"cell line": "NCI-H2023", "relative viability": 0.178}]}]}
